Measured values taken from article PMC11079024, “Identification of a family of species-selective complex I inhibitors as potential anthelmintics” (Nature Communications, 2024).
Read-outs that look alike come from different tables or passages of the source.

What was measured:
[1] = test system: ben-1 mutant (ECA882) C. elegans; assay: microbe, parasite or virus in culture; details: Caenorhabditis elegans; for viability at 1 µM / viability at 2 µM / viability at 3.9 µM / viability at 15.6 µM / viability at 31.3 µM / viability at 62.5 µM / viability at 125 µM / viability at 250 µM / viability at 500 µM / viability at 1000 µM: read-out: C. elegans ben-1(e1880) development/viability
Method in brief: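 Development and viability scored from single well images as total worm pixels divided by the matching DMSO control value, mean of ≥3 replicates. Worms added as synchronized L1s to HB101 suspension in liquid NGM with compound (1% DMSO v/v), grown 6 days at 20 °C with shaking.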

[2] = target: B. taurus (heart) complex I (Bos taurus, UniProt P03887+P17694+P42026); assay: biochemical; type: biochemical; details: for activity at 0.0001 µM / activity at 0.0005 µM / activity at 0.001 µM / activity at 0.0025 µM / activity at 0.005 µM / activity at 0.013 µM / activity at 0.025 µM / activity at 0.063 µM / activity at 0.125 µM / activity at 0.313 µM / activity at 0.625 µM / activity at 1.5 µM / activity at 3 µM / activity at 15 µM / activity at 37.5 µM / activity at 75 µM: read-out: B. taurus mitochondrial complex I activity; for Log IC50 B. taurus complex I: log10 of IC50 in µM, B. taurus mitochondria
Method in brief: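 Complex I activity followed as DCIP reduction (600 nm, 30 s reads, 15 min) with 80 μM NADH and 60 μM decylubiquinone in 25 mM KPi pH 7.5 containing 2 μM antimycin A and 2 mM KCN. Freeze-thawed mouse or bovine heart mitochondria at 0.2 mg/mL; initial-rate percent of solvent control, single-point 100 μM or dose-response.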

[3] = in vitro; details: human; for viability at 2 days, 3.13 µM / viability at 2 days, 12.5 µM / viability at 2 days, 25 µM / viability at 2 days, 50 µM / viability at 2 days, 100 µM / viability at 2 days, 6.25 µM: HEK293 cells (Flp-In-293); for viability at 2 days, 3.13 µM / viability at 2 days, 12.5 µM / viability at 2 days, 25 µM / viability at 2 days, 50 µM / viability at 2 days, 100 µM / viability / viability at 2 days, 6.25 µM: HEK293 viability
[4] = read-out: C. elegans (ben-1) Development & Viability Assay LC50
[5] = read-out: C. elegans ben-1 log10 LC50 (converted)
[6] = B. taurus heart mitochondria, estimated from fitted dose-response curves, read-out: B. taurus Complex I IC50
[7] = read-out: C. elegans ben-1 LC50
[8] = B. taurus heart mitochondria, read-out: B. taurus Complex I IC50
[9] = HEK293 Cell Viability Assay LC50, HEK293 cells, estimated from fitted dose-response curves
[10] = HEK293 Cell Viability Assay LC50, HEK293 cells, estimated from fitted dose-response curves, mean of at least two biological replicates

Chain of B. taurus (heart) complex I (P03887 whole entry): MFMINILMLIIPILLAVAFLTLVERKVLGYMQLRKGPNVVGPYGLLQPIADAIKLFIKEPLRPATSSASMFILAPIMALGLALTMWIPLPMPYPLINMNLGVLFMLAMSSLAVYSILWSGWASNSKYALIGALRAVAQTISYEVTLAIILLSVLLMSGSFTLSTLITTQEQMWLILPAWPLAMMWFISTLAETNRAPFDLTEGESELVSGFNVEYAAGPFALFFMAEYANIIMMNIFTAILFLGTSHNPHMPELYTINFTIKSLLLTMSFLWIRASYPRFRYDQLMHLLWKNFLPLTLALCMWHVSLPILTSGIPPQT
Chain of B. taurus (heart) complex I (P17694 34-463): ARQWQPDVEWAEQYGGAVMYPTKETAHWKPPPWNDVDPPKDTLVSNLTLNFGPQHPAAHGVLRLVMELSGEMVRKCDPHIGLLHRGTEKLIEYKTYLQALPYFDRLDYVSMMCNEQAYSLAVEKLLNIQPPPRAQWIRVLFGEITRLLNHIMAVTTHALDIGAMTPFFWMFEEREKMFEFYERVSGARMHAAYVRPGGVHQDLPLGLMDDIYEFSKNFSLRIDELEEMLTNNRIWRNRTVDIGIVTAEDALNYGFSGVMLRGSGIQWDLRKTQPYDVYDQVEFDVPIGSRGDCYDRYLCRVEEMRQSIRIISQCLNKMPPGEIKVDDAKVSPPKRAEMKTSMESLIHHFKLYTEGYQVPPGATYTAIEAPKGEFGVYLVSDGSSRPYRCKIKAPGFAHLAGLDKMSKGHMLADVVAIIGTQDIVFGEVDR
Chain of B. taurus (heart) complex I (P42026 38-216): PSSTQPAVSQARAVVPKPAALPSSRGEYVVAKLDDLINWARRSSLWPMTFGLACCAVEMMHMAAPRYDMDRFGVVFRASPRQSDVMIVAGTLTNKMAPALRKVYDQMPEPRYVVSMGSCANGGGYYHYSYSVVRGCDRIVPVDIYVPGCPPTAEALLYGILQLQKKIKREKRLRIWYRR

SMILES | LC50 [1, 4] | LC50 [1, 5] | IC50 [2, 6] | activity at 0.0001 µM [2] | activity at 0.0005 µM [2] | activity at 0.001 µM [2] | activity at 0.0025 µM [2] | activity at 0.005 µM [2] | activity at 0.013 µM [2] | activity at 0.025 µM [2] | activity at 0.063 µM [2] | activity at 0.125 µM [2] | activity at 0.313 µM [2] | activity at 0.625 µM [2] | activity at 1.5 µM [2] | activity at 3 µM [2] | activity at 15 µM [2] | activity at 37.5 µM [2] | activity at 75 µM [2] | Log IC50 B. taurus complex I [2] | further results
Cc1ccccc1OCCCn1c(C)nc2ccccc21 [Compound 7916923] | 142 µM | 143 µM | 6.67 µM | 98.7% | 101% | 103% | 101% | 107% | 99.6% | 102% | 104% | 90.7% | 96.6% | 92.7% | 79.4% | 70.6% | 24.7% | 6.64% | 2.1% | 0.82 µM | viability at 1 µM [1]: 95.8%; viability at 2 µM [1]: 94.9%; viability at 3.9 µM [1]: 93.4%; viability at 15.6 µM [1]: 96%; viability at 31.3 µM [1]: 89.5%; viability at 62.5 µM [1]: 86.2%; viability at 125 µM [1]: 67.3%; viability at 250 µM [1]: 2.7%; viability at 500 µM [1]: 2.9%; viability at 1000 µM [1]: 2.3%; CC50 at 2 days [3]: 45.5 µM; viability at 2 days, 3.13 µM [3]: 84.6%; viability at 2 days, 12.5 µM [3]: 95.2%; viability at 2 days, 25 µM [3]: 73.1%; viability at 2 days, 50 µM ([3]; Dose 50 µM): 41.6%; viability at 2 days, 100 µM [3]: 9.6%; viability ([3]; Dose 6.25 µM): 94.9%
Cc1nc2ccccc2n1CCOc1ccccc1 [Compound 5550112] | > 1000 µM | > 500 µM | – | 101% | 97.8% | 105% | 102% | 103% | 98.3% | 99.2% | 91.8% | 95.1% | 92.8% | 96.9% | 85.2% | 74.2% | 36.6% | 16.7% | 5.1% | 0.99 µM | viability at 1 µM [1]: 99.2%; viability at 2 µM [1]: 100%; viability at 3.9 µM [1]: 96.9%; viability at 15.6 µM [1]: 97.1%; viability at 31.3 µM [1]: 92.9%; viability at 62.5 µM [1]: 100%; viability at 125 µM [1]: 93.6%; viability at 250 µM [1]: 86.4%; viability at 500 µM [1]: 91.2%; viability at 1000 µM [1]: 92.4%; LC50 [1, 7]: > 500 µM; IC50 [2, 8]: 9.86 µM; CC50 at 2 days [3, 9]: > 100 µM; viability at 2 days, 3.13 µM [3]: 100%; viability at 2 days, 6.25 µM ([3]; Dose 6.25 µM): 98.3%; viability at 2 days, 12.5 µM [3]: 99.1%; viability at 2 days, 25 µM [3]: 100%; viability at 2 days, 50 µM ([3]; Dose 50 µM): 100%; viability at 2 days, 100 µM [3]: 100%
C=CCn1c(C(C)c2ccc(CC(C)C)cc2)nc2ccccc21 (stereo not drawn) [STL020755] | 285 µM | 284 µM | 16.8 µM | – | – | – | – | – | – | – | – | – | – | – | – | – | – | – | – | 1.23 µM | CC50 at 2 days [3, 10]: 49.5 µM
CCn1c(C(C)c2ccc(CC(C)C)cc2)nc2ccccc21 (stereo not drawn) [STK951902] | 644 µM | 644 µM | 12.5 µM | – | – | – | – | – | – | – | – | – | – | – | – | – | – | – | – | 1.10 µM | CC50 at 2 days [3, 10]: 31.7 µM
Cc1nc2ccccc2n1Cc1ccc(Br)cc1 [Compound 5567167] | 11.2 µM | 11.2 µM | 0.209 µM | – | – | – | – | – | – | – | – | – | – | – | – | – | – | – | – | -0.68 µM | IC50 ([2]; in vitro complex I dose response on B. taurus mitochondria, average of at least two biological replicates, fit in R (DRC), read-out: IC50 B. taurus complex I): 0.21 µM; CC50 at 2 days [3, 10]: 89.3 µM
Clc1ccc(Cn2cnc3ccccc32)cc1Cl [Compound 5571325] | 69.5 µM | 69.5 µM | – | 97.2% | 100% | 100% | 99.4% | 97.3% | 88.2% | 96.9% | 95.3% | 96% | 92.8% | 96.3% | 89.7% | 83.9% | 36% | 5.23% | 1.54% | 1.06 µM | IC50 [2, 8]: 11.5 µM; CC50 at 2 days [3, 9]: 86.4 µM; viability at 2 days, 3.13 µM [3]: 73.5%; viability at 2 days, 6.25 µM ([3]; Dose 6.25 µM): 52.9%; viability at 2 days, 12.5 µM [3]: 49.8%; viability at 2 days, 25 µM [3]: 60.7%; viability at 2 days, 50 µM ([3]; Dose 50 µM): 57.7%; viability at 2 days, 100 µM [3]: 16.3%
Cc1ccc(OCCn2cnc3ccccc32)c(C)c1 [Compound 7706808] | > 1000 µM | > 500 µM | 8.48 µM | 97.5% | 94.8% | 99.1% | 97% | 95.6% | 97.8% | 90.5% | 96% | 93.5% | 91.4% | 82.8% | 81.2% | 69.4% | 30.6% | 11.4% | 6.37% | 0.93 µM | viability at 1 µM [1]: 100%; viability at 2 µM [1]: 96.2%; viability at 3.9 µM [1]: 97%; viability at 15.6 µM [1]: 98.9%; viability at 31.3 µM [1]: 97.3%; viability at 62.5 µM [1]: 93.8%; viability at 125 µM [1]: 89.7%; viability at 250 µM [1]: 94.6%; viability at 500 µM [1]: 76.7%; viability at 1000 µM [1]: 69.9%; LC50 [1, 7]: > 500 µM; CC50 at 2 days [3]: 89.1 µM; viability at 2 days, 3.13 µM [3]: 100%; viability at 2 days, 6.25 µM ([3]; Dose 6.25 µM): 100%; viability at 2 days, 12.5 µM [3]: 100%; viability at 2 days, 25 µM [3]: 100%; viability at 2 days, 100 µM [3]: 36.2%; viability ([3]; Dose 50 µM): 94.6%
Nc1nc2ccccc2n1Cc1ccc(Cl)cc1 [Compound 5652765] | 71.7 µM | 71.6 µM | 2.27 µM | 93.5% | 96.1% | 91% | 95.6% | 88.8% | 88.3% | 83.3% | 87.9% | 79.5% | 76.3% | 72.5% | 54.3% | 36.4% | 4.61% | 0.42% | 0.3% | 0.36 µM | viability at 1 µM [1]: 98%; viability at 2 µM [1]: 94.6%; viability at 3.9 µM [1]: 92.8%; viability at 15.6 µM [1]: 89.9%; viability at 31.3 µM [1]: 76.1%; viability at 62.5 µM [1]: 63.7%; viability at 125 µM [1]: 13.8%; viability at 250 µM [1]: 7.4%; viability at 500 µM [1]: 6.3%; CC50 at 2 days [3, 10]: 58.9 µM; viability at 2 days, 3.13 µM [3]: 94.2%; viability at 2 days, 6.25 µM ([3]; Dose 6.25 µM): 94%; viability at 2 days, 12.5 µM [3]: 92.9%; viability at 2 days, 25 µM [3]: 94.5%; viability at 2 days, 50 µM ([3]; Dose 50 µM): 62.3%; viability at 2 days, 100 µM [3]: 10%
